“Also recorded” adds a separate entry of the source.
Legend:
[1] = system: H1975 (EGFR^L858R/T790M) cells; assay: CCK-8 cell growth assay, H1975; format: cell-based; settings: Homo sapiens, NCI-H1975; CCK-8, 72 h; AV ± SD; read-out: antiproliferative IC50 H1975
Method: (§1) Cells were seeded into 96‐well plates at a density of 1500~3000/well in complete medium overnight. Then, cells were treated with various concentrations (0.01~1000 nmol/L) of YL143 for additional 3 days. Viable cell numbers were determined by Cell Counting Kit 8 (CCK8, CK04, Dojindo Laboratories, Japan). Each assay consisted of three replicate wells and repeated at least three times. […] Each IC50 value was expressed as mean ± SD.

BaF3 = assay: CCK-8 assay, BaF3 cells; format: cell-based; settings: Mus musculus, AV±SD, read-out: anti-proliferative activity BaF3
Method: as §1
The anti-proliferative activities of the compounds were evaluated using CCK-8 assay. The data were means from at least four independent experiments.

H1975 xenograft = assay: H1975 tumor xenograft in CB17-SCID mice; format: in vivo; settings: 30 mg/kg, po, qd
Method: Male CB17‐SCID mice were purchased from Vital River Laboratory Animal Technology Inc. (Beijing, China). H1975 cells (5 × 10^6/mouse) were injected subcutaneously in the right flanks of mice. […] All the compounds were suspended in 0.5% CMC‐Na aqueous solution. The tumor volume and body weight of animals were measured once every 2 days. Tumor volume was calculated as the L × W ^2/2 (L and W are the length and width of the tumor, respectively). All animal experiments were approved by the Institutional Animal Use and Care Committee of Guangzhou Institute of Biomedicine and Health, Chinese Academy of Science.

[2] = system: HCC827 (EGFR^del 19) cells; assay: CCK-8 cell growth assay, HCC827; format: cell-based; settings: Homo sapiens, HCC827; CCK-8, 72 h; AV ± SD; read-out: antiproliferative IC50 HCC827
Method: as §1

AKT3 = AKT3 (Homo sapiens, UniProt Q9Y243); assay: Z'-Lyte kinase panel, AKT3; format: biochemical; settings: 1.5 hrs incubation
Chain of AKT3 (Q9Y243 whole entry, species assumed): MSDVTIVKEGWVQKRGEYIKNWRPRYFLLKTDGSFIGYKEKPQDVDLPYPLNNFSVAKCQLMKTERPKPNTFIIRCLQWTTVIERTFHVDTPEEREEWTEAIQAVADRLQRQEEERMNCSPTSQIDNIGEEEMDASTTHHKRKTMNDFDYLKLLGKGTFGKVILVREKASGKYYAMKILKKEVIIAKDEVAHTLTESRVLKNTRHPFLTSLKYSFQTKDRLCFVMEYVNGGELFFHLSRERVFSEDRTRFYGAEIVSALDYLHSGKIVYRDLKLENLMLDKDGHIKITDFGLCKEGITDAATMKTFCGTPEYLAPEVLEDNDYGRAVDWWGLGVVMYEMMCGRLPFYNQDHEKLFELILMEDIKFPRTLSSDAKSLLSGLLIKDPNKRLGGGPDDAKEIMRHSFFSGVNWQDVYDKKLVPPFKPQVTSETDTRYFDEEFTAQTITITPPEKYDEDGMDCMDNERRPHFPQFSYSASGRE
Method: (§2) Kinase activity assays were performed using the FRET-based Z′-Lyte assay according to the manufacturer’s instructions. The compounds were incubated with the kinase reaction mixture for 1.5 hrs before measurement. The data are means from two independent experiments and the variations are below 20%.

ZAK = ZAK (Homo sapiens, UniProt Q9NYL2); assay: Z'-Lyte kinase panel, ZAK; format: biochemical; settings: 1.5 hrs incubation
Chain of ZAK (Q9NYL2 whole entry, species assumed): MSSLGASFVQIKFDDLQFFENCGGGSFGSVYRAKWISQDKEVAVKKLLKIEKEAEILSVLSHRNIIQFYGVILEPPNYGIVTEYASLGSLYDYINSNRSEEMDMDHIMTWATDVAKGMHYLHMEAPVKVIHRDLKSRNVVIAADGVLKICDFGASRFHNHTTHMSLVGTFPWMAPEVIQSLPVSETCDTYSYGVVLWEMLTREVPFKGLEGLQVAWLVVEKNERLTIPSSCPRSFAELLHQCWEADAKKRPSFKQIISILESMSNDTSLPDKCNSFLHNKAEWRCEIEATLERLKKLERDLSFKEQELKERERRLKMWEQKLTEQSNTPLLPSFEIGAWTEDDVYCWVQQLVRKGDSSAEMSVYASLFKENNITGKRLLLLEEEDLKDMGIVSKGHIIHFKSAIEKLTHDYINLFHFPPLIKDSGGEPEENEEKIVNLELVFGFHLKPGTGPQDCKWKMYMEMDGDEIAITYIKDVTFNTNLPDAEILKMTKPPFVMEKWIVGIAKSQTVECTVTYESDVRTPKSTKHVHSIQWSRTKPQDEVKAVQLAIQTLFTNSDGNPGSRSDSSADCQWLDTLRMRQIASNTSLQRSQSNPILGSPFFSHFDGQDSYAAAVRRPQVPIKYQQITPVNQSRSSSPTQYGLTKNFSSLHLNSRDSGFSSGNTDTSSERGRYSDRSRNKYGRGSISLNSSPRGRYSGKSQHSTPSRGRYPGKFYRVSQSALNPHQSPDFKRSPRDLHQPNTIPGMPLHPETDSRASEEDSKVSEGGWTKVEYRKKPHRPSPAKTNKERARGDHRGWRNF
Method: as §2

[3] = system: EGFR signal pathway in A431 cells; assay: Western blot of EGFR signaling in A431 cells; format: cell-based; settings: compared with H1975
Method: Cells were treated with various concentrations of compound for designed time. Then, cells were lysed using 1 × SDS sample lysis buffer (CST recommended) with protease and phosphatase inhibitors. Cell lysates were loaded and electrophoresed onto 8–12% SDS‐PAGE gel, and then, separated proteins were transferred to a PVDF film. The film was blocked with 5% fat‐free milk in TBS solution containing 0.5% Tween‐20 for 4 h at room temperature and then incubated with corresponding primary antibody (1:1000–1:200) overnight at 4°C. After washing with TBST, HRP‐conjugated secondary antibody was incubated for 2 h. And the protein signals were visualized by ECL Western Blotting Detection Kit (Thermo Scientific, Waltham, MA) and detected with Amersham Imager 600 system (GE, America).
The selective EGFR ^L858R/T790M inhibition of YL143 was investigated in H1975, HCC827, A549, and A431 cancer cells harboring different statuses of EGFR by Western blotting analysis (Fig. 2A).

A549 (EGFR^WT) cells = assay: CCK-8 cell growth assay, A549; format: cell-based; settings: Homo sapiens, A549; CCK-8, 72 h; read-out: antiproliferative IC50 A549
Method: as §1

EGFR^T790M = target: T1, EGFR^T790M (Homo sapiens, UniProt P00533, T790M); assay: FRET-based Z'-Lyte kinase assay, EGFR T790M; format: biochemical; settings: AV ± SD; 1.5 h incubation
T1 construct: purchased Invitrogen
T1 sequence (P00533 25-1210 T790M): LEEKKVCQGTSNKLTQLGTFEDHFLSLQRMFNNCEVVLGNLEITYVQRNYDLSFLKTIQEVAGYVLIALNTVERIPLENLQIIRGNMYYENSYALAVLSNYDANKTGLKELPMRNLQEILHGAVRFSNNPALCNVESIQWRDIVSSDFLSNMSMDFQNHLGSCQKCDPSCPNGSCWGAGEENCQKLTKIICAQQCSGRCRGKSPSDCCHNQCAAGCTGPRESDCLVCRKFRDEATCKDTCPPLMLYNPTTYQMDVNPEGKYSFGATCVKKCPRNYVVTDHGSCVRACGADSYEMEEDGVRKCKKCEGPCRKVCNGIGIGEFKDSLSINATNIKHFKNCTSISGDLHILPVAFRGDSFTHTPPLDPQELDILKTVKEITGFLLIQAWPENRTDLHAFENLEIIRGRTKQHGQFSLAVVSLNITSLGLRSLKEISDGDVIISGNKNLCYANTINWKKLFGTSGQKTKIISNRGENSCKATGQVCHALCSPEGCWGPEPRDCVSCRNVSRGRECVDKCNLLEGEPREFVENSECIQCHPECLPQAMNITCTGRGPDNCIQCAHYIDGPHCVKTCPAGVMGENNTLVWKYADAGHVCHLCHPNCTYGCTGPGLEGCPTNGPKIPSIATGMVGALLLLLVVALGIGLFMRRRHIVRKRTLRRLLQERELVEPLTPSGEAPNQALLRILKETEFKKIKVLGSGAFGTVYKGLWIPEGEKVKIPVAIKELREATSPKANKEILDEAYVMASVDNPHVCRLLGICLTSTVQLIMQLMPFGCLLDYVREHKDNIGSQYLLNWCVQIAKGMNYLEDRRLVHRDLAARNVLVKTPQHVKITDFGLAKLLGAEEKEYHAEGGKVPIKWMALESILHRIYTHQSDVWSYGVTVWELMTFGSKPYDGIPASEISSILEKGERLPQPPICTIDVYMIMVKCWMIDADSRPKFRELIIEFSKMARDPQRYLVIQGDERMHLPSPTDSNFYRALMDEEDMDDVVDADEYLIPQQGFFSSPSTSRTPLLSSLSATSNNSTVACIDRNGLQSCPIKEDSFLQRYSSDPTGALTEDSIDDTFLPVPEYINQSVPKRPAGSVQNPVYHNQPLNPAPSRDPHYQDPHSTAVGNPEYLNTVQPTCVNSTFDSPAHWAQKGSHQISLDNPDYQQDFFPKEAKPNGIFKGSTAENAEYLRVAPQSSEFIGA
Method: The kinase activity assay was performed and optimized according to the instructions of Z’‐LYTE™ kinase assay kits from the manufacturer (PV4879, Life, America). In our experiments, 10 concentration gradients from 0.01 nmol/L to 1.0 μmol/L were used for all the compounds.

Kit = Kit (Homo sapiens, UniProt P10721); assay: Z'-Lyte kinase panel, Kit; format: biochemical; settings: 1.5 hrs incubation
Chain of Kit (P10721 26-976, species assumed): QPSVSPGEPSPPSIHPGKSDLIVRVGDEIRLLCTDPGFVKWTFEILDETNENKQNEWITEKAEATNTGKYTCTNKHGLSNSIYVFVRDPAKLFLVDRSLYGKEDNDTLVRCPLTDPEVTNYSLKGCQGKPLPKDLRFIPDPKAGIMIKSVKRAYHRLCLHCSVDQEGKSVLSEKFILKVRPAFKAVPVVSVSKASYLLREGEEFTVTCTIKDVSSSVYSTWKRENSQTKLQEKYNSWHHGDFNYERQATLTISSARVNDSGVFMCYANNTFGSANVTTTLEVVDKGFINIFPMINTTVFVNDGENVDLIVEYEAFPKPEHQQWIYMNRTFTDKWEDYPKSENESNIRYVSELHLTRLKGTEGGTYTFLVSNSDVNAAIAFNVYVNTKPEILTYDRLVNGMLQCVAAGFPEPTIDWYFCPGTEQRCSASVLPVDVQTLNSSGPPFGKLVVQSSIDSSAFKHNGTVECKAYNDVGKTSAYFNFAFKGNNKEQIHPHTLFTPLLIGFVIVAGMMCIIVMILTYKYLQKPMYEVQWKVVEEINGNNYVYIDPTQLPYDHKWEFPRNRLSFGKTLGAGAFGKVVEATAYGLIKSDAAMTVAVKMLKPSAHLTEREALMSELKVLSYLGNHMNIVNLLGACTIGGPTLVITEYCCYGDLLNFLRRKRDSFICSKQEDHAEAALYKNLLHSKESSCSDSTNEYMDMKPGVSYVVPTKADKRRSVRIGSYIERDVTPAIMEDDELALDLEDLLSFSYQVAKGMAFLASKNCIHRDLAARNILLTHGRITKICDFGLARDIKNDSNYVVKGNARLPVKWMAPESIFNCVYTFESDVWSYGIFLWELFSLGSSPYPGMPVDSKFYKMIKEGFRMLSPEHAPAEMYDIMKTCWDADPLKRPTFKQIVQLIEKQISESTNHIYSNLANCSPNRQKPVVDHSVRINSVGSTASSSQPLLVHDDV
Method: as §2

With `C=CC(=O)Nc1cc(C)cc(-n2c(=O)cc(C)c3cnc(Nc4ccc(N5CCN(C)CC5)cc4OC)nc32)c1` [YL143, N‐(3‐(2‐((2‐Methoxy‐4‐(4‐methylpiperazin‐1‐yl)phenyl)amino)‐5‐methyl‐7‐oxopyrido [2,3‐d]pyrimidin‐8(7H)‐yl)‐5‐methylphenyl)acrylamide] the IC50 [1] was 45.2 ± 27.3 nM, the IC50 (BaF3) was greater than 10000 nM and the “TUNEL stain of the tumor tissue” value (H1975 xenograft; 18 days) was “induced apoptosis”. The antitumor efficacy (H1975 xenograft; 18 days) was “promising antitumor efficacy; also recorded: comparable in vivo antitumor effect to that of CO1686”, the “tolerability (mortality, body weight)” value (H1975 xenograft; 18 days) was “well tolerated; also recorded: without significantly toxic signs” and the “hyperglycemia side effect (blood glucose)” value (H1975 xenograft; day 7 and 14, compared with CO1686) was “weaker hyperglycemia side effect”. It also gave an IC50 [2] of 21.1 ± 9.9 nM, an IC50 (AKT3) greater than 10000 nM and an IC50 (ZAK) greater than 10000 nM. For the same molecule, the “effect on EGFR signal pathway” value [3] was “obviously less potent”, the IC50 (A549 (EGFR^WT) cells) was greater than 1000 nM and the IC50 (EGFR^T790M) was 7.8 ± 1.1 nM. The IC50 (Kit) was greater than 10000 nM.
